Measurements from patent US7199152B2, “TNF-α production inhibitor comprising kavalactone as an active ingredient” (Meiji Dairies Corporation, priority 2000, dated 2007).

Experiments:
[1] = system: TNF-α production in BALB/3T3 cells stimulated by okadaic acid; assay: Inhibition of TNF-α production (in vitro) in BALB/3T3 cells stimulated by okadaic acid, ELISA; type: cell-based; conditions: for TNF-α production relative to the TNF-α production of the control: okadaic acid 0.2 μM, 24 hours, control = 100%; for TNF-α production inhibitory effect, overall assessment (in words): BALB/3T3 cells, okadaic acid stimulation
Procedure: In response to stimulation by okadaic acid (9,10-deepithio-9,10-didehydroacanthifolicin), BALB/3T3 cells produce TNF-α. The compounds of the present invention were investigated in terms of inhibitory effect on TNF-α production.
An MEM medium (product of Nissui) containing 10% fetal calf serum (product of Biocell Laboratory) was injected into 12-well multiplates (product of Corning), and BALB/3T3 cells were disseminated at 2×10^5 cells/well. The cells were cultured in a carbon dioxide gas incubator (5% Co2, humidified, 37° C.). Subsequently, KAVA-1, KAVA-2, KAVA-3, KAVA-4, or KAVA-5 was added to the wells at a concentration shown in FIG. 1, and the cells were cultured for one hour. No KAVA compound was added to the control wells. After completion of culturing, okadaic acid (carcinogenisis promoter isolated from Halichondria okadai) was added to each well at a final concentration of 0.2 μM, and culturing was performed for 24 hours. After completion of this culturing, the TNF-α concentration of the supernatant of each well was measured by means of ELISA system (product of Genzyme). In FIG. 1, the amount of TNF-α release corresponding to each compound concentration is represented by a percent concentration based on the amount of TNF-α release measured for the control (100%).

[2] = system: TNF-α production in serum induced by LPS; assay: TNF-α inhibitory effect (in vivo), LPS-induced serum TNF-α in mice, ELISA; set-up: species or system BALB/c mice; conditions: 40 mg/kg intraperitoneally, LPS 50 μg/mouse i.p. immediately after, serum 90 minutes after LPS
Procedure: Male BALB/cAnNCrj mice of 6 weeks age were purchased from Japan Charles River, and those having body weights of 30 g or lower were tested.
Seven mice groups, each group consisting of six mice, were provided; i.e., 1) a group to which distilled water for injection was administered (non-treated group) (N); 2) a group to which a 0.3% carboxymethyl cellulose-Na (0.3% CMC-Na) suspension was administered (control group) (C); and 3) five groups to which KAVA-1, KAVA-2, KAVA-3, KAVA-4, and KAVA-5, respectively, were administered (0.3% CMC-Na was used as a solvent).
Each of KAVA-1, KAVA-2, KAVA-3, KAVA-4, and KAVA-5 was prepared to a drug liquid of 40 mg/10 ml. The liquid was intraperitoneally administered at 10 ml/kg (dose: 40 mg/kg), and 0.3% CMC-Na was intraperitoneally administered at 10 ml/kg to each corresponding group. Lipo-polysaccharide (LPS) (product of SIGMA) was dissolved in physiological saline, and the solution was intraperitoneally administered to each mouse in an amount of 0.2 ml (50 μg/mouse) immediately after administration of the drug liquid.
After 90 minutes from administration of LPS, blood was collected from the eye socket, and the collected sample was allowed to stand for one hour at room temperature. Subsequently, the sample was centrifuged at 11,000 rpm for five minutes, and the serum was collected. […]

| Structure (SMILES) | TNF-α production relative to the TNF-α production of the control ([1]; 100 μM compound) | inhibition of serum TNF-α production compared with the control group (C) (in words) [2] | TNF-α production inhibitory effect, overall assessment (in words) [1] | TNF-α production relative to the TNF-α production of the control ([1]; 10 μM compound) | TNF-α production relative to the TNF-α production of the control ([1]; 50 μM compound) | inhibitory effect on TNF-α production (in words) ([1]; concentrations of 50 μM or less) |
| --- | --- | --- | --- | --- | --- | --- |
| COC1=CC(=O)O[C@@H](/C=C/c2ccc3c(c2)OCO3)C1 [KAVA-1, (+)-Methysticin] | approximately 39% | almost comparable to that exerted by KAVA-2 |  |  |  |  |
| COc1ccc(/C=C/c2cc(OC)cc(=O)o2)cc1 [KAVA-2, Yangonin] | approximately 22% |  | strong TNF-A production inhibitory effect |  |  |  |
| COc1cc(/C=C/c2ccccc2)oc(=O)c1 [KAVA-3, Desmethoxyyangonin] | approximately 0% |  | strong TNF-A production inhibitory effect | approximately 60% | approximately 22% |  |
| COC1=CC(=O)O[C@@H](CCc2ccccc2)C1 [KAVA-4, (+)-Dihydrokavain] | approximately 60% | significantly (p<0.5) inhibited TNF-α production |  |  |  | no inhibitory effect |
| COC1=CC(=O)O[C@@H](/C=C/c2ccccc2)C1 [KAVA-5, (+)-Kavain] | approximately 39% |  |  |  |  |  |
